Experiments:
Assay in all cases: relative viability (nuclei count vs DMSO), 5 days (fraction); higher = more cells survive
[1] = compound: Cc1ccc(F)c(NC(=O)Nc2ccc(-c3cccc4[nH]nc(N)c34)cc2)c1 [Linifanib] + Cc1cc(Nc2cc(N3CCN(C)CC3)nc(Sc3ccc(NC(=O)C4CC4)cc3)n2)n[nH]1 [Tozasertib] (partner 0.1 µM)
Method in brief: (§1)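 Lung cancer cell lines, seeded in 1536-well plates, were treated the following day by pin tool with a single drug or with five library-drug doses (not always all listed) in √10 steps on top of a fixed anchor-drug dose. Cells were fixed and nuclei stained in one step after 5 days, and nuclei were counted. Relative viability is the nuclei count for treated wells divided by that for vehicle wells, reported as medians of duplicate plates.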

[2] = compound: Cc1ccc(F)c(NC(=O)Nc2ccc(-c3cccc4[nH]nc(N)c34)cc2)c1 [Linifanib] + CC(C)C[C@H](NC(=O)[C@H](Cc1ccccc1)NC(=O)c1cnccn1)B(O)O [Bortezomib] (partner 0.002 µM)
Method in brief: as §1

[3] = compound: Cc1ccc(F)c(NC(=O)Nc2ccc(-c3cccc4[nH]nc(N)c34)cc2)c1 [Linifanib] + CCNC(=O)c1noc(-c2cc(C(C)C)c(O)cc2O)c1-c1ccc(CN2CCOCC2)cc1 [Luminespib] (partner 0.01 µM)
Method in brief: as §1

Row | Cell Line | relative viability ([1]; first compound 0.03162 µM) | relative viability ([1]; first compound 0.1 µM) | relative viability ([1]; first compound 0.3162 µM) | relative viability ([2]; first compound 0.03162 µM) | relative viability ([2]; first compound 0.1 µM) | relative viability ([2]; first compound 0.3162 µM) | relative viability ([3]; first compound 0.03162 µM) | relative viability ([3]; first compound 0.1 µM) | relative viability ([3]; first compound 0.3162 µM)
1 | 201T | 0.971 | 0.965 | 0.942 | 1.05 | 1.09 | 1.08 | 1.1 | 1.06 | 1.03
2 | A-427 | 0.227 | 0.204 | 0.197 | 1.04 | 1.05 | 0.949 | 0.912 | 1.09 | 0.814
3 | ABC-1 | 0.152 | 0.173 | 0.176 | 0.25 | 0.343 | 0.285 | 0.497 | 0.558 | 0.783
4 | BEN | 0.446 | 0.441 | 0.484 | 0.723 | 0.975 | 0.778 | 0.276 | 0.49 | 0.233
5 | CAL-12T | 0.333 | 0.348 | 0.355 | 1.06 | 1.01 | 0.8 | 0.438 | 0.751 | 0.364
6 | COR-L23 | 0.181 | 0.228 | 0.141 | 1.12 | 1.17 | 0.831 | 0.673 | 0.892 | 0.705
7 | COR-L 105 | 0.334 | 0.321 | 0.336 | 0.954 | 0.851 | 0.735 | 0.807 | 0.889 | 0.556
8 | ChaGo-K-1 | 0.239 | 0.245 | 0.228 | 0.946 | 1.18 | 0.926 | 0.636 | 0.777 | 0.563
9 | EKVX | 0.477 | 0.448 | 0.338 | 0.863 | 1.03 | 0.698 | 0.838 | 0.962 | 0.854
10 | EMC-BAC-2 | 0.296 | 0.266 | 0.302 | 1.11 | 1.13 | 1.12 | 1.2 | 1.19 | 1.14
11 | EPLC-272H | 0.346 | 0.209 | 0.181 | 1.21 | 1.04 | 0.785 | 0.405 | 0.392 | 0.419
12 | H3255 | 0.767 | 0.662 | 0.601 | 0.809 | 0.781 | 0.728 | 0.85 | 0.94 | 0.976
13 | HARA | 0.094 | 0.117 | 0.0893 | 1.14 | 1.11 | 1.06 | 1.12 | 0.651 | 0.707
14 | HCC-15 | 0.39 | 0.406 | 0.436 | 1.04 | 0.99 | 0.988 | 0.387 | 0.278 | 0.3
15 | HCC-44 | 0.558 | 1.05 | 0.812 | 0.925 | 0.915 | 0.818 | 0.903 | 0.954 | 1.05
16 | HCC-78 | 0.493 | 0.519 | 0.371 | 0.455 | 0.429 | 0.472 |  |  | 
17 | HCC-366 | 0.0836 | 0.0997 | 0.105 | 1 | 1.1 | 1.02 |  |  | 
